Results taken from BindingDB's records for patent US11555039 (Translational Drug Development, 2023).

Biological target: Rho-associated protein kinase 2 (Homo sapiens, UniProt O75116)
Assay: Kinase Inhibition

Chain of Rho-associated protein kinase 2 (O75116 whole entry): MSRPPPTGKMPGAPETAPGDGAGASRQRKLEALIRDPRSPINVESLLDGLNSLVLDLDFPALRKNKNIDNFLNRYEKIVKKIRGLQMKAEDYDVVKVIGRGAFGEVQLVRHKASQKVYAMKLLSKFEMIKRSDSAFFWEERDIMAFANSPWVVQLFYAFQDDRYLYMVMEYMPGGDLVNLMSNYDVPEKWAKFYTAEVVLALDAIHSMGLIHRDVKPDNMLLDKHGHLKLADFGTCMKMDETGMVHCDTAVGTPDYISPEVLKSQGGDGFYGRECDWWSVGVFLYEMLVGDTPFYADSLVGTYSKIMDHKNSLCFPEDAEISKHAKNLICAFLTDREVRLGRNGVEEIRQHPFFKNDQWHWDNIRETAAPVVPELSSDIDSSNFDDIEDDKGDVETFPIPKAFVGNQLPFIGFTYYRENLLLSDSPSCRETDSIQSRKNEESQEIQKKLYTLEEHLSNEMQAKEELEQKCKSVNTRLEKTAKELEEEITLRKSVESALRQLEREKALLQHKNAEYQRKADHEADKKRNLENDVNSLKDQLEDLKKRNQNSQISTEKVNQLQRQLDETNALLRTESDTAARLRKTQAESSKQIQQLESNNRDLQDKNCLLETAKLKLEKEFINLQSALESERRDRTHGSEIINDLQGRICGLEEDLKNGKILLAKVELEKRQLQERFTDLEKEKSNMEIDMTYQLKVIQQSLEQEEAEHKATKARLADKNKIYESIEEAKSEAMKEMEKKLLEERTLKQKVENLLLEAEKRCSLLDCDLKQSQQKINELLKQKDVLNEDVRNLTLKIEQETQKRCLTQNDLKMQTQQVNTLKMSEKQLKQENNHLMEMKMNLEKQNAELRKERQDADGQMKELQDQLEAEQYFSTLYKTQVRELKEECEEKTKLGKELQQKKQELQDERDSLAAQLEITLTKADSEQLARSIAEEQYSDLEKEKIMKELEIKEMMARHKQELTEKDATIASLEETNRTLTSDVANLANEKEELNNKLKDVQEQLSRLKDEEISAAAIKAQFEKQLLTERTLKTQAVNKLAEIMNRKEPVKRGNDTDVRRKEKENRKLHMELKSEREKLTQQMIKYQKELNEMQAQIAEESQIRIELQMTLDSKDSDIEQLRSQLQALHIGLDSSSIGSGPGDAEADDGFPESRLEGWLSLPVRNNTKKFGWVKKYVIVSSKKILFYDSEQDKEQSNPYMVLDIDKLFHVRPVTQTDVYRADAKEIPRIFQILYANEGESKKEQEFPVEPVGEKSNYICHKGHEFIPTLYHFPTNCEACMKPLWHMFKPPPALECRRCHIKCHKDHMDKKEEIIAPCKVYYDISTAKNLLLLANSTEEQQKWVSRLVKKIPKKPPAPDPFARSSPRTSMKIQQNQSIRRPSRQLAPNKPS

For `CCOc1ccc(NC(=O)c2cccc([C@@H](CO)NC(=O)c3ccc(-c4ccncc4)cc3)c2)cn1` [US11555039, Compound ID 93], which IC50 is on record?
Its IC50 is 0.51 nM.
